PMC12675575, “A BRET biosensor for measuring uncompetitive engagement of PRMT5 complexes in cells” (Nature Communications, 2025)
Values joined by “and” are separate entries in the source; they are usually repeats but may differ in a detail not shown here. Identical values can stand only once. Blank lines part the entries; values can stand above or below the compound they belong to.

Columns and labels:
PRMT5:MEP50 = test system: PRMT5:MEP50; parameters: method as in ref 1 (a number printed in a supplementary file, which may have a reference list of its own: not looked up in the article's list); details: HTRF, H4R3 monomethylation; read-out: Biochemical (nM), IC50; cited from earlier work
MAT2A [1] = test: BRET probe sensitivity to MAT2A inhibition (Compound A) in live HEK293 cells expressing NLuc-PRMT5; assay type: cell-based; details: Log([Compound A]), 37 °C
MAT2A [2] = test: as above; assay type: cell-based; details: for normalized BRET signal (Figure S3D) / Normalized BRET probe signal: Log([Compound A]); for normalized BRET signal (Figure S3D): replicates; for Normalized BRET probe signal: 37 °C
Method: To measure BRET probe sensitivity to both MAT2A inhibition and exogenous MTA in live cells, HEK293 cells were pre-treated with 30 nM CBH-002 and incubated at 37 °C and 5% CO2 for 2 h. For MAT2A inhibition, a 20 µM, 3-fold, 11 pt titration series of Compound A (Selleckchem) was added to wells. Cells were incubated either at 37 °C (Fig. 3D) or room temperature (Fig. S3D). Data were normalized using Eq. (2), where BRETMIN = instrument background (no CBH-002), and BRETMAX = 2 h vehicle treatment, and fit curves were generated using Eq. (1). For MTA sensitivity cells were treated with a 1 mM, 11 pt, 2-fold series of MTA (Sigma) and cells were incubated at room temperature for 2 h, reading in 15 min intervals. Data were normalized using Eq. (2), where BRETMIN = instrument background (no CBH-002), and BRETMAX = 2 h + vehicle treatment. Data were fit with Eq. (1).

[3] = molecular target: NLuc-PRMT5 co-expressed with WDR77 (Homo sapiens, UniProt O14744); test: Compound EC50 titrations against MTA, NanoBRET in HEK293 (NLuc-PRMT5 + WDR77), with global Gaddum/Schild or Morrison fits
Method: MTA (Sigma) was prepared at 100× in 100% DMSO and diluted to 10× in Opti-MEM. Inhibitors were run as 11 pt, 3-fold dilution curves and MTA as a seven point, 3-fold dilution curve starting at 100 μM. Cells were incubated for 2 h at 37 °C and 5% CO2 prior to BRET measurements. Data was normalized using Eq. (2) where BRETMIN = saturating compound + maximum [MTA], and BRETMAX = BRET signal under vehicle conditions. Curves were fit using Eq. (3), and EC50 values were plotted against MTA concentration to determine the linear range of MTA detection.

Z-138 cells = test system: Z-138 cells; parameters: method as in ref 2,3 (a number printed in a supplementary file, which may have a reference list of its own: not looked up in the article's list); details: read-out: Proliferation (nM), IC50; cited from earlier work

Sequence of NLuc-PRMT5 co-expressed with WDR77 (O14744 whole entry): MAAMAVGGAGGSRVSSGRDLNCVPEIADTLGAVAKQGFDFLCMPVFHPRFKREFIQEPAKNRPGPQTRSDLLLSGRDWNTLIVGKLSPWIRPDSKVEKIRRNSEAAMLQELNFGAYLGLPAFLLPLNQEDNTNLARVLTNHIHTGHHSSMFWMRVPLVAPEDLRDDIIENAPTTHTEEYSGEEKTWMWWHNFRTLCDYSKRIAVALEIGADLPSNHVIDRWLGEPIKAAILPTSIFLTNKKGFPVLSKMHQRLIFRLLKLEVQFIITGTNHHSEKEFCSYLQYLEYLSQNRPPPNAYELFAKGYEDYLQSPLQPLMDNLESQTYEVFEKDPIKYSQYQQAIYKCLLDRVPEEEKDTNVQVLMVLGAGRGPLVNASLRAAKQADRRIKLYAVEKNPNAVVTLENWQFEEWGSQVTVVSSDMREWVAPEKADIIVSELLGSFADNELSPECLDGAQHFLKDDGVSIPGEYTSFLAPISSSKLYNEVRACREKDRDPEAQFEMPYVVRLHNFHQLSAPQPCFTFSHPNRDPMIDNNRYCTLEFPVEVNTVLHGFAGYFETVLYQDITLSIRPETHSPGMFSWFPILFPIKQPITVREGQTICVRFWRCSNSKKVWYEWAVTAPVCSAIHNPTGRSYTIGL
Sequence of NLuc-PRMT5 co-expressed with WDR77 (Q9BQA1 whole entry partner): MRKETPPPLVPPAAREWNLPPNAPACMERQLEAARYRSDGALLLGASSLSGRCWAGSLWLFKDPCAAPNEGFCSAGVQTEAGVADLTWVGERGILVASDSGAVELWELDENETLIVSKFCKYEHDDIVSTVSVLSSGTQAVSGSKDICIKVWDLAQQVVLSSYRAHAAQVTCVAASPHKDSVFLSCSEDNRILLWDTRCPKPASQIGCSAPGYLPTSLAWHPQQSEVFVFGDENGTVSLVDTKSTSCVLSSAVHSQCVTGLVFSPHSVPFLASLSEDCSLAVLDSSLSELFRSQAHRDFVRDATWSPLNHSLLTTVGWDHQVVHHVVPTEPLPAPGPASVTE

Compound: CC(=O)N1CCC(Nc2cc(C(=O)NC[C@H](O)CN3CCc4ccccc4C3)ncn2)CC1 [GSK3326595]
IC50 (PRMT5:MEP50): 6.2 nM

Compound: Nc1nc(=O)n(-c2ccccc2Cl)c2nc(C(F)(F)F)ccc12 [Compound A]
Normalized BRET probe signal (MAT2A [1]; uM 0.82, Time (h) 6): 54.59 and 55.03 and 49.39 | Normalized BRET probe signal (MAT2A [1]; uM 1.30, Time (h) 2): 83.43 and 85.48 and 85.77 | Normalized BRET probe signal (MAT2A [1]; uM 1.30, Time (h) 5): 54.62 and 56.32 and 57.46 | Normalized BRET probe signal (MAT2A [1]; uM -1.56, Time (h) 4): 64.62 and 64.77 and 65.94 | normalized BRET signal (Figure S3D) (MAT2A [2]; uM 0.35, Time 0 min): 102.31 and 101.27 and 102.49 | normalized BRET signal (Figure S3D) (MAT2A [2]; uM 0.35, Time 15 min): 102.22 and 100.75 and 100.92 | normalized BRET signal (Figure S3D) (MAT2A [2]; uM 0.35, Time 30 min): 98.94 and 102.77 and 99.88 | normalized BRET signal (Figure S3D) (MAT2A [2]; uM 0.35, Time 45 min): 101.50 and 99.61 and 97.49 | normalized BRET signal (Figure S3D) (MAT2A [2]; uM 0.35, Time 60 min): 100.91 and 99.04 and 97.98 | normalized BRET signal (Figure S3D) (MAT2A [2]; uM 0.35, Time 75 min): 100.10 and 98.57 and 96.49 | normalized BRET signal (Figure S3D) (MAT2A [2]; uM 0.35, Time 90 min): 99.02 and 98.37 and 97.43 | normalized BRET signal (Figure S3D) (MAT2A [2]; uM 0.35, Time 120 min): 96.41 and 97.99 and 95.04 | normalized BRET signal (Figure S3D) (MAT2A [2]; uM 0.82, Time 0 min): 101.24 and 100.09 and 103.66 | normalized BRET signal (Figure S3D) (MAT2A [2]; uM 0.82, Time 15 min): 101.29 and 99.47 and 102.07 | normalized BRET signal (Figure S3D) (MAT2A [2]; uM 0.82, Time 30 min): 99.28 (2×) and 100.85 | normalized BRET signal (Figure S3D) (MAT2A [2]; uM 0.82, Time 45 min): 99.67 and 98.96 and 100.10 | normalized BRET signal (Figure S3D) (MAT2A [2]; uM 0.82, Time 60 min): 100.24 and 98.62 and 99.55 | normalized BRET signal (Figure S3D) (MAT2A [2]; uM 0.82, Time 75 min): 100.92 and 98.42 and 98.44 | normalized BRET signal (Figure S3D) (MAT2A [2]; uM 0.82, Time 90 min): 100.92 and 98.07 and 97.73 | normalized BRET signal (Figure S3D) (MAT2A [2]; uM 0.82, Time 120 min): 98.05 and 98.30 and 97.43 | Normalized BRET probe signal (MAT2A [2]; uM 0.82, Time (h) 2): 80.32 and 82.63 and 81.99 | Normalized BRET probe signal (MAT2A [2]; uM 0.82, Time (h) 4): 62.79 | Normalized BRET probe signal (MAT2A [2]; uM 0.82, Time (h) 5): 55.09 and 56.94 and 59.00 | normalized BRET signal (Figure S3D) (MAT2A [2]; uM 1.30, Time 0 min): 100.00 | normalized BRET signal (Figure S3D) (MAT2A [2]; uM 1.30, Time 15 min): 100.00 | normalized BRET signal (Figure S3D) (MAT2A [2]; uM 1.30, Time 30 min): 100.00 | normalized BRET signal (Figure S3D) (MAT2A [2]; uM 1.30, Time 45 min): 100.00 | normalized BRET signal (Figure S3D) (MAT2A [2]; uM 1.30, Time 60 min): 100.00 | normalized BRET signal (Figure S3D) (MAT2A [2]; uM 1.30, Time 75 min): 100.00 | normalized BRET signal (Figure S3D) (MAT2A [2]; uM 1.30, Time 90 min): 100.00 | normalized BRET signal (Figure S3D) (MAT2A [2]; uM 1.30, Time 120 min): 100.00 | Normalized BRET probe signal (MAT2A [2]; uM 1.30, Time (h) 3): 81.83 and 81.36 and 78.63 | Normalized BRET probe signal (MAT2A [2]; uM 1.30, Time (h) 4): 64.66 and 66.78 and 66.04 | Normalized BRET probe signal (MAT2A [2]; uM 1.30, Time (h) 6): 52.27 and 54.37 and 54.09 | normalized BRET signal (Figure S3D) (MAT2A [2]; uM 1.30, Time […]): 100.00 | normalized BRET signal (Figure S3D) (MAT2A [2]; uM -0.13, Time 0 min): 102.61 | normalized BRET signal (Figure S3D) (MAT2A [2]; uM -0.13, Time 30 min): 99.28 | normalized BRET signal (Figure S3D) (MAT2A [2]; uM -0.13, Time 45 min): 99.89 and 99.35 and 98.26 | normalized BRET signal (Figure S3D) (MAT2A [2]; uM -0.13, Time 60 min): 99.27 and 98.76 and 97.87 | normalized BRET signal (Figure S3D) (MAT2A [2]; uM -0.13, Time 75 min): 99.29 and 98.14 and 96.57 | normalized BRET signal (Figure S3D) (MAT2A [2]; uM -0.13, Time 90 min): 99.41 and 97.78 and 96.89 | normalized BRET signal (Figure S3D) (MAT2A [2]; uM -0.13, Time 120 min): 97.11 and 97.69 | Normalized BRET probe signal (MAT2A [2]; uM -1.56, Time (h) 2): 86.27 and 89.51 and 86.94 | Normalized BRET probe signal (MAT2A [2]; uM -1.56, Time (h) 3): 78.52 and 78.24 and 76.36 | Normalized BRET probe signal (MAT2A [2]; uM -1.56, Time (h) 5): 56.30 and 59.42 and 61.19 | Normalized BRET probe signal (MAT2A [2]; uM -1.56, Time (h) 6): 57.39 and 58.36 and 56.05 | Normalized BRET probe signal (MAT2A [2]; uM -2.04, Time (h) 2): 91.78 and 93.83 and 92.35 | Normalized BRET probe signal (MAT2A [2]; uM -2.04, Time (h) 3): 84.09 and 82.20 and 80.64 | Normalized BRET probe signal (MAT2A [2]; uM -2.04, Time (h) 4): 71.87 and 73.84 and 72.51 | Normalized BRET probe signal (MAT2A [2]; uM -2.04, Time (h) 5): 61.86 and 65.39 and 67.66 | Normalized BRET probe signal (MAT2A [2]; uM -2.04, Time (h) 6): 67.16 and 64.98 and 63.98 | Normalized BRET probe signal (MAT2A [2]; uM -2.52, Time (h) 2): 97.92 and 101.07 and 97.78 | Normalized BRET probe signal (MAT2A [2]; uM -2.52, Time (h) 3): 92.42 and 90.78 and 89.69 | Normalized BRET probe signal (MAT2A [2]; uM -2.52, Time (h) 4): 81.28 and 83.71 and 82.94 | Normalized BRET probe signal (MAT2A [2]; uM -2.52, Time (h) 5): 74.64 and 76.80 and 79.27 | Normalized BRET probe signal (MAT2A [2]; uM -2.52, Time (h) 6): 75.70 and 75.54 and 75.07 | Normalized BRET probe signal (MAT2A [2]; uM -2.99, Time (h) 2): 99.19 and 102.22 and 99.77 | Normalized BRET probe signal (MAT2A [2]; uM -2.99, Time (h) 3): 95.84 and 93.35 and 94.20 | Normalized BRET probe signal (MAT2A [2]; uM -2.99, Time (h) 4): 94.50 and 92.51 and 93.76 | Normalized BRET probe signal (MAT2A [2]; uM -2.99, Time (h) 5): 87.56 and 91.04 and 95.19 | Normalized BRET probe signal (MAT2A [2]; uM -2.99, Time (h) 6): 89.25 and 91.90 and 87.75 | Normalized BRET probe signal (MAT2A [2]; uM -3.47, Time (h) 2): 98.78 and 102.46 and 100.43 | Normalized BRET probe signal (MAT2A [2]; uM -3.47, Time (h) 3): 98.17 and 97.18 and 96.26 | Normalized BRET probe signal (MAT2A [2]; uM -3.47, Time (h) 4): 96.70 and 95.88 and 97.43 | Normalized BRET probe signal (MAT2A [2]; uM -3.47, Time (h) 5): 93.94 and 96.00 and 96.68 | Normalized BRET probe signal (MAT2A [2]; uM -3.47, Time (h) 6): 97.50 and 96.53 and 90.92 | Time to plateau of BRET inhibition (MAT2A [2]; live cells, pre-equilibrated CBH-002, 37 °C): ~ 5 h | Effect on CBH-002 binding at room temperature (MAT2A [2]; room temperature, 2-h interval): did not impact CBH-002 binding

Schild slope ([3]; Global Gaddum/Schild EC50 shift fit, MTA titration, HEK293): 1.3 (1.15 - 1.47) | Hill slope ([3]; [MTA] 0 μM, HEK293): 0.81 | Hill slope ([3]; [MTA] 11.11 μM, HEK293): 0.77 | Hill slope ([3]; [MTA] 100 μM, HEK293): 0.72 | Hill slope ([3]; [MTA] 300 μM, HEK293): 0.87 | Hill slope (Global/Schild fit) ([3]; constant across [MTA], constrained to 1 for PF06939999 and GSK3326595): 0.75 (0.73 - 0.78)
Compound: O=C(NC[C@H](O)CN1CCc2ccccc2C1)c1cc(NC2COC2)ncn1 [EPZ015666]
IC50 (Z-138 cells): 62 nM
